Results from PMC9028889 (Pharmaceuticals, 2022).

Assays:
MCF10A cells [1] = assay: clonogenic survival / colony formation assay, MCF10A; type: cell-based, human; conditions: for EC50: MCF-10A, clonogenic survival assay, human normal immortalized mammary epithelial cell line; for colony formation: MCF10A, 0, 1, 5, and 10 μM, 2 weeks
Description: (§1) MCF10A, T47D, and MB231 cells (5 × 10^3) were seeded in 24-well plates, and cells were exposed to different CMC conjugates at different concentrations (0, 1, 5, and 10 μM) for 2 weeks, changing the medium for every 3 days with respective CMC conjugates at the indicated concentrations. After 2 weeks, cells were washed with PBS and fixed in 100% methanol for 30 min followed by staining with KaryoMax Giemsa stain for 1 h. The unfound dyes were removed by washing the wells with water and dried overnight at room temperature. Finally, cells were lysed with lysis buffer (1% SDS in 0.2 N NaOH) for 5 min, and the absorbance of the released dye was measured at 630 nm, as described before. Values are shown as mean ± SD of three experiments with 3 wells in each, for a total of 9 repeats.

T47D cells [2] = assay: clonogenic survival / colony formation assay, T47D; type: cell-based, human; conditions: for EC50: Homo sapiens, T47D, clonogenic survival assay, ER+ BC cell line; for colony formation: T47D, 0, 1, 5, and 10 μM, 2 weeks
Description: as §1

MB231 cells [3] = assay: clonogenic survival / colony formation assay, MB231; type: cell-based, human; conditions: for EC50: Homo sapiens, clonogenic survival assay, TNBC cell line; for colony formation: MB231, 0, 1, 5, and 10 μM, 2 weeks
Description: as §1

normal C57BL/6 mice = assay: toxicity study in normal C57BL/6 mice; type: in vivo; conditions: 50 and 100 mg/kg body, oral gavage daily for 7 days; for morphology (kidney, liver, lung): H&E
Description: We tested whether the synthesized conjugates are free of toxicity and safer to use in human normal cells and animal models. We treated human normal immortalized cell line (MCF10A) and normal C57BL/6 mice at different concentrations and time points.
Administration of CMC compounds to the mice: For toxicity studies, CMC1 and CMC2 conjugates at two different concentrations (50 and 100 mg/kg body) were given oral gavage daily for 7 days. At the end of the experiment, animals were euthanized, kidneys, liver, and lungs were analyzed for morphological changes. We also collected blood samples to measure Creatinine using a Creatinine assay kit (obtained from Millipore Sigma, Burlington, MA, USA, Catalog # MAK080), Alanine aminotransferase (ALT), using an ALT assay kit (obtained from the Millipore Sigma, Catalog #MAK053), Aspartate aminotransferase (AST), using an AST assay kit obtained from Millipore Sigma, Catalog #MAK055), and blood urea and nitrogen (BUN), using a urea nitrogen assay kit (obtained from ThermoFisher Scientific, Waltham, MA, USA, Catalog #EIABUN) as per the manufacturer’s instruction.

MMTV–PyMT–Tg mice = assay: spontaneous mouse mammary tumor model; type: in vivo; conditions: 10 mg/kg body, three times a week by oral gavage for 7 weeks
Description: We chose MMTV–PyMT–Tg mouse mainly because the tumor formation and progression in this mouse is characterized by four different stages (hyperplasia, adenoma/mammary intra-epithelial neoplasia, early and late carcinoma) and also mimics human BC; the tumor develops first as ER-positive (ER^+) but ultimately becomes ER-negative BC (ER^− BC). We randomly assigned 6-week-old MMTV–PyMT–Tg mice into two groups (6 mice in each); one control and one CMC2 treated (10 mg/kg body, three times a week by oral gavage for 7 weeks). We measured the tumor volume twice a week. Tumor volume was calculated using the formula V = L × W^2/2, where L represents the largest tumor diameter, and W represents the smallest tumor diameter. Mice were euthanized after seven weeks of treatment, and tumor tissues were collected. The total tumor weight was measured. Tumor tissue sections were prepared and stained with Hematoxylin and Eosin (H&E) for morphometric analysis and Ki67 for cell proliferation analysis.
Similarly, six-week-old MMTV–PyMT–Tg mice were grouped into two groups—one control and one CMC2 treatment. The control mice received PBS, and the CMC2-treated group received CMC2 conjugate (10 mg/kg body by oral gavage, three times a week) for 7 weeks. We monitored animal weight and measured the tumor volume twice a week. At the end of the experimental period, mice were euthanized, and tumor tissues were harvested and measured for tumor weight. Tumor tissues were processed to extract RNA and protein and fixed in 10% buffered formalin phosphate solution (obtained from Fisher Scientific, Catalog #SF100-4) for morphological analysis.

T47D cells [4] = assay: MTT cell proliferation assay, T47D; type: cell-based, human; conditions: T47D, 0, 1, 5, and 10 μM, 72 h
Description: (§2) MCF10A, T47D, and MB231 cells (5 × 10^3) were seeded in 96-well plates and incubator at 37 °C with 5% CO2 in MEGM, DMEM, and RPMI medium (100 μL), respectively. After 24 h, the medium was replaced with the CMC conjugates at different concentrations (0, 1, 5, and 10 μM) for 72 h. After 72 h, 10 μL MTT reagent was added to each well and incubated for 2 h for the formation of purple formazan and then added 100 μL detergent to dissociate the formazan precipitate and measured at 570 nm. Values are shown as mean ± SD of three experiments with 3 wells in each, a total of 9 repeats.

MB231 cells [5] = assay: MTT cell proliferation assay, MB231; type: cell-based, human; conditions: MB231, 0, 1, 5, and 10 μM, 72 h
Description: as §2

MCF10A cells [6] = assay: MTT cell proliferation assay, MCF10A; type: cell-based, human; conditions: MCF10A, 0, 1, 5, and 10 μM, 72 h
Description: as §2

Q: With `COc1cc(/C=C/C(=O)/C=C(O)/C=C/c2ccc(OC(=O)C(Cl)Cl)c(OC)c2)ccc1OC(=O)C(Cl)Cl` [CMC1, ((1E,3Z,6E)-3-Hydroxy-5-oxohepta-1,3,6-triene-1,7-diyl)bis(2-methoxy-4,1-phenylene) bis(2,2-dichloroacetate)] as the compound, how does the EC50 (MCF10A cells [1]) read?
A: 8980 nM

Q: And the EC50 (T47D cells [2])?
A: 1650 nM

Q: And the EC50 (MB231 cells [3])?
A: 424 nM

Q: What about the body weight (normal C57BL/6 mice) of the same compound?
A: no changes

Q: And the “kidney functions (serum creatinine and blood urea and nitrogen)” value (normal C57BL/6 mice)?
A: no changes

Q: And the “liver functions (ALT and AST)” value (normal C57BL/6 mice)?
A: no changes

Q: And the “morphology (kidney, liver, lung)” value (normal C57BL/6 mice)?
A: no changes

Q: What does the source list for `COc1cc(/C=C/C(=O)/C=C(O)/C=C/c2ccc(OC(=O)CNC(=O)C(Cl)Cl)c(OC)c2)ccc1OC(=O)CNC(=O)C(Cl)Cl` [CMC2, ((1E,3Z,6E)-3-Hydroxy-5-oxohepta-1,3,6-triene-1,7-diyl)bis(2-methoxy-4,1-phenylene) bis(2-(2,2-dichloroacetamido)acetate)]?
A: EC50 (MCF10A cells [1]): 9680 nM; EC50 (T47D cells [2]): 1420 nM; lung nodules (MMTV–PyMT–Tg mice): reducing; normal body weight and organ histology (MMTV–PyMT–Tg mice): without affecting; overall survival rate (MMTV–PyMT–Tg mice): increased; tumor cell proliferation (Ki67) in mammary and lung tumor tissue (MMTV–PyMT–Tg mice): inhibiting; tumor growth (MMTV–PyMT–Tg mice): significantly reduced; EC50 (MB231 cells [3]): 778 nM; body weight (normal C57BL/6 mice): no changes; kidney functions (serum creatinine and blood urea and nitrogen) (normal C57BL/6 mice): no changes; liver functions (ALT and AST) (normal C57BL/6 mice): no changes; morphology (kidney, liver, lung) (normal C57BL/6 mice): no changes

Q: With `COc1cc(/C=C/C(=O)/C=C(O)/C=C/c2ccc(OC(=O)[C@H](C)NC(=O)C(Cl)Cl)c(OC)c2)ccc1OC(=O)[C@H](C)NC(=O)C(Cl)Cl` [CMC3, ((1E,3Z,6E)-3-Hydroxy-5-oxohepta-1,3,6-triene-1,7-diyl)bis(2-methoxy-4,1-phenylene) (2S,2’S)-bis(2-(2,2-dichloroacetamido)propanoate)] as the compound, how does the EC50 (MCF10A cells [1]) read?
A: 9710 nM

Q: What about the EC50 (T47D cells [2]) of the same compound?
A: 1600 nM

Q: And the EC50 (MB231 cells [3])?
A: 518 nM

Q: Which melting point does the source give for `COc1cc(/C=C/C(=O)/C=C(O)/C=C/c2ccc(OC(=O)CCNC(=O)C(Cl)Cl)c(OC)c2)ccc1OC(=O)CCNC(=O)C(Cl)Cl` [CMC4, ((1E,3Z,6E)-3-Hydroxy-5-oxohepta-1,3,6-triene-1,7-diyl)bis(2-methoxy-4,1-phenylene) bis(3-(2,2-dichloroacetamido)propanoate)] here?
A: 140 to 142 °C

Q: What about the EC50 (MCF10A cells [1]) of the same compound?
A: 8860 nM

Q: And the EC50 (T47D cells [2])?
A: 1260 nM

Q: What about the EC50 (MB231 cells [3]) of the same compound?
A: 1130 nM

Q: What does the source list for `COc1cc(/C=C/C(=O)/C=C(O)/C=C/c2ccc(OC(=O)[C@H](Cc3ccccc3)NC(=O)C(Cl)Cl)c(OC)c2)ccc1OC(=O)[C@H](Cc1ccccc1)NC(=O)C(Cl)Cl` [CMC5, ((1E,3Z,6E)-3-Hydroxy-5-oxohepta-1,3,6-triene-1,7-diyl)bis(2-methoxy-4,1-phenylene) (2S,2’S)-bis(2-(2,2-dichloroacetamido)-3-phenylpropanoate)]?
A: EC50 (MCF10A cells [1]): 9600 nM; EC50 (T47D cells [2]): 1240 nM; EC50 (MB231 cells [3]): 838 nM

Q: Which melting point does the source give for `COc1cc(/C=C/C(=O)/C=C(O)/C=C/c2ccc(OC(=O)CCCNC(=O)C(Cl)Cl)c(OC)c2)ccc1OC(=O)CCCNC(=O)C(Cl)Cl` [CMC6, ((1E,3Z,6E)-3-Hydroxy-5-oxohepta-1,3,6-triene-1,7-diyl)bis(2-methoxy-4,1-phenylene) bis(4-(2,2-dichloroacetamido)butanoate)] here?
A: 130 to 132 °C

Q: What about the EC50 (MCF10A cells [1]) of the same compound?
A: 9470 nM

Q: And the EC50 (T47D cells [2])?
A: 1370 nM

Q: What about the EC50 (MB231 cells [3]) of the same compound?
A: 942 nM

Q: What does the source list for `COc1cc(/C=C/C(=O)CC(=O)/C=C/c2ccc(O)c(OC)c2)ccc1O` [CUR, Curcumin, reference compound]?
A: cell viability / proliferation (MTT) (T47D cells [4]): inhibited; cell viability / proliferation (MTT) (MB231 cells [5]): inhibited; colony formation (MCF10A cells [1]): not; colony formation (T47D cells [2]): inhibited; cell viability / proliferation (MTT) (MCF10A cells [6]): not; colony formation (MB231 cells [3]): inhibited

Q: Which results are given for `O=C(O)C(Cl)Cl` [DCA, Dichloroacetate, reference compound]?
A: cell viability / proliferation (MTT) (T47D cells [4]): inhibited; cell viability / proliferation (MTT) (MB231 cells [5]): inhibited; colony formation (MCF10A cells [1]): not; colony formation (T47D cells [2]): inhibited; cell viability / proliferation (MTT) (MCF10A cells [6]): not; colony formation (MB231 cells [3]): inhibited
